{"source": "paper PMC2749030", "about": "“New stably transfected bioluminescent cells expressing FLAG epitope-tagged estrogen receptors to study their chromatin recruitment” (BMC Biotechnology, 2009)", "key": {"FLAG-ERα": {"molecular_target": "T1, FLAG-ERα (Homo sapiens, UniProt P03372)", "T1 construct": "expressed in transfected cells; pSG5-puro plasmid", "T1 sequence (P03372 1-595)": "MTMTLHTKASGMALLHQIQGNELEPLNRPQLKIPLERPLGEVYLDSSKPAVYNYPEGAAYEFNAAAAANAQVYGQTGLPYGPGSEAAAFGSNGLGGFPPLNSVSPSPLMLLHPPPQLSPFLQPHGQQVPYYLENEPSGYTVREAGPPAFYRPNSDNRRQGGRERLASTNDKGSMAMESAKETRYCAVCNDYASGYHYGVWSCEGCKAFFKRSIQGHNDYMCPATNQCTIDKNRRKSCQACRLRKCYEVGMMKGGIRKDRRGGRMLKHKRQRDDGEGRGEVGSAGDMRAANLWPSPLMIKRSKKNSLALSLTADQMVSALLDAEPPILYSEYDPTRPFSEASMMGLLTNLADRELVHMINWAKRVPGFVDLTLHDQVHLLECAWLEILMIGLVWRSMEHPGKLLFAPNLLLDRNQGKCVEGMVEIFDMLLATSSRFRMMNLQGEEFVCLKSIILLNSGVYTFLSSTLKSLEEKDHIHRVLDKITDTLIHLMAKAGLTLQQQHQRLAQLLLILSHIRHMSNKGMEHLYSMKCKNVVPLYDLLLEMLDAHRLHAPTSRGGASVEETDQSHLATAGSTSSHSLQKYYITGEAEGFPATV", "assay": "ERE-driven luciferase transactivation assay in HELN-Fα cells", "assay_type": "cell-based", "conditions": "16 hr stimulation, luciferase activity, 100% = 10 nM E2", "method": "(§1) Cells were incubated with compounds for 16 h. At the end of the incubation, effector containing medium was removed and replaced by 0.3 mM luciferin containing 6% DCC-FCS. At this concentration, luciferin diffuses into the cell and produces a stable luminescent signal. The 96-well plate was then introduced in a microplate luminometer (Microbeta, Wallac) and intact living cell luminescence measured for 2 s. EC50 values were evaluated using Graph-Pad Prism Statistics software (version 4.0; Graph-Pad Software Inc., San Diego, CA, USA)."}, "FLAG-ERβ": {"molecular_target": "T2, FLAG-ERβ (Homo sapiens, UniProt Q92731)", "T2 construct": "FLAG-ERβ (full length version of 530 amino acids); expressed in transfected cells; pSG5-puro plasmid", "T2 sequence (Q92731 whole entry)": "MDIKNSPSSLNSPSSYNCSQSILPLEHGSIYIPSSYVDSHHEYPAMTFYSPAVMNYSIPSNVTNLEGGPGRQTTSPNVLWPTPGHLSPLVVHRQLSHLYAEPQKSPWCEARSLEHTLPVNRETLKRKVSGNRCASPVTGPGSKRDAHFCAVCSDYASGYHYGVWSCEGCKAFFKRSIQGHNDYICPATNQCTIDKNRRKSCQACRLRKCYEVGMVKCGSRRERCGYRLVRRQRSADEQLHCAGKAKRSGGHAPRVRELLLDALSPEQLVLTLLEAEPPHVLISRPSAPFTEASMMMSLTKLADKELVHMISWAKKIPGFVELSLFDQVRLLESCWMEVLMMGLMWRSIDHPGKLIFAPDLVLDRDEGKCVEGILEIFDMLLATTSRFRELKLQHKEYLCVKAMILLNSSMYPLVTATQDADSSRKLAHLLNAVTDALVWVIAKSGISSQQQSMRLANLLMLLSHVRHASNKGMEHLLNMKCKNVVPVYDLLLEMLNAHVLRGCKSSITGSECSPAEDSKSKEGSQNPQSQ", "assay": "ERE-driven luciferase transactivation assay in HELN-Fβ cells", "assay_type": "cell-based", "conditions": "HELN-Fβ versus HELN-Fα cells, 16 hr", "method": "as §1"}, "ERα": {"test_system": "ERα", "parameters": "method as in PMID 11708925, PMID 11150164", "conditions": "ERα selective agonist; RBA = 100 for estradiol; cited from earlier work"}}}
{"smiles": "CCCc1c(-c2ccc(O)cc2)nn(-c2ccc(O)cc2)c1-c1ccc(O)cc1", "note": "[PPT, Propylpyrazoletriol]", "values": [{"measurement": "EC50", "setting": "FLAG-ERα", "result": 0.15, "unit": "nM"}, {"measurement": "activation of ERβ (in words)", "setting": "FLAG-ERβ", "result": "activated only ERα"}, {"measurement": "relative binding activity (RBA)", "setting": "ERα", "result": 49}]}
